US5962314A, “Calcium receptor-active molecules” (priority 1997, dated 1999)
Entries after “also recorded” stand apart in the source; their conditions may differ. No end group written: not given here.

Columns and labels:
[1] = tested on: parathyroid calcium receptors; assay: response of calcium receptor-transfected HEK293, CHO and JEG-3 cells; format: cell-based
Method: Functional calcium receptor expression was assessed by loading cells with fura-2 and measuring changes in intracellular calcium levels after addition of calcium receptor agonists. Control constructs were prepared by cloning the substance K receptor and the M1 muscarinic receptor cDNAs into similar commercial vectors as described above. Control constructs were transfected into the various cell lines described above, and the response of the cells containing the control constructs to substance K or to carbachol, respectively, was measured. […] Neither control responded to increases in extracellular calcium.

calcium receptor = molecular target: T1, calcium receptor (Homo sapiens, UniProt P41180); assay: Xenopus oocytes injected with human parathyroid cell mRNA; format: cell-based; conditions: hexacyclen 135 μM; neomycin 100 μM; NPS 382 5 mM
T1 sequence (P41180 20-1078): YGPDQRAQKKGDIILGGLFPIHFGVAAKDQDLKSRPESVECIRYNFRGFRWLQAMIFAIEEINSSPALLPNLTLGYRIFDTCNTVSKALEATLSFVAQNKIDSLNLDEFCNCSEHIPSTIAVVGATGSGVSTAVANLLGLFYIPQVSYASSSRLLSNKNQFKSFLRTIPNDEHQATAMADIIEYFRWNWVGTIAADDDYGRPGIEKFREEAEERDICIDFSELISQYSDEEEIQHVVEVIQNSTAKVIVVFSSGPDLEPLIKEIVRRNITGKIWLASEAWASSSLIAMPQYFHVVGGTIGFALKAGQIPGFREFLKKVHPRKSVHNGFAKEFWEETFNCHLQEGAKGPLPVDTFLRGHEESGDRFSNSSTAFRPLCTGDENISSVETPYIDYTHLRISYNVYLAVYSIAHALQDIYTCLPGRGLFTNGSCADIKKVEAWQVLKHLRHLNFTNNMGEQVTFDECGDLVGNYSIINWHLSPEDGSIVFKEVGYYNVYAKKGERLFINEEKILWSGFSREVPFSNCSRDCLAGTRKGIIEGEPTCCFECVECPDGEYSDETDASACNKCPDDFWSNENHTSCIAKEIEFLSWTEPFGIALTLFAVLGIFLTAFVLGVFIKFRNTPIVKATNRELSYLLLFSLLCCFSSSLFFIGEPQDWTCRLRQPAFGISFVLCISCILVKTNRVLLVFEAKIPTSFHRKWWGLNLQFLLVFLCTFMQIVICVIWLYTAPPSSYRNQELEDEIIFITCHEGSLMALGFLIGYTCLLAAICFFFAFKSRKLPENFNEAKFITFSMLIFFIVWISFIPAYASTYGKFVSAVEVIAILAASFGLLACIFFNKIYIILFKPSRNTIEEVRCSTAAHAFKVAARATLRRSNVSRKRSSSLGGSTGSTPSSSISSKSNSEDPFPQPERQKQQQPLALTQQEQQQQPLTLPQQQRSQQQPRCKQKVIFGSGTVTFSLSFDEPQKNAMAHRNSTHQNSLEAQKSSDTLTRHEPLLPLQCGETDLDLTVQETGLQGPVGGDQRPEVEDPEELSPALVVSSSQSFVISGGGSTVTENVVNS
Method: Oocytes were injected with poly(A)^+ -enriched mRNA from human parathyroid tissue (hyperplastic glands from a case of secondary HPT).
(§1) Following incubation, an oocyte was placed into a 100-μl plastic chamber and superfused with MBS at a flow rate of 0.5 ml/min using a peristaltic pump. Test molecules or inorganic polycations were added by rapidly moving the tubing into different buffers. Recording and current-passing electrodes were constructed from thin-wall capillary tubing pulled to a resistance of 1-3 Mohms and filled with 3 M KCl. […] Currents were recorded directly onto a strip chart recorder.
Using this screen allows one to test for an action directly on the calcium receptor. Oocytes expressing the calcium receptor also responded to several molecules active on intact parathyroid cells when screened as follows. […] This offers rather compelling evidence showing that these molecules act on the calcium receptor or on some other protein intimately associated with its function.

[2] = molecular target: T2, parathyroid cell calcium receptor (Bos taurus, UniProt P35384); assay: cell-based; format: cell-based
T2 sequence (P35384 20-1085): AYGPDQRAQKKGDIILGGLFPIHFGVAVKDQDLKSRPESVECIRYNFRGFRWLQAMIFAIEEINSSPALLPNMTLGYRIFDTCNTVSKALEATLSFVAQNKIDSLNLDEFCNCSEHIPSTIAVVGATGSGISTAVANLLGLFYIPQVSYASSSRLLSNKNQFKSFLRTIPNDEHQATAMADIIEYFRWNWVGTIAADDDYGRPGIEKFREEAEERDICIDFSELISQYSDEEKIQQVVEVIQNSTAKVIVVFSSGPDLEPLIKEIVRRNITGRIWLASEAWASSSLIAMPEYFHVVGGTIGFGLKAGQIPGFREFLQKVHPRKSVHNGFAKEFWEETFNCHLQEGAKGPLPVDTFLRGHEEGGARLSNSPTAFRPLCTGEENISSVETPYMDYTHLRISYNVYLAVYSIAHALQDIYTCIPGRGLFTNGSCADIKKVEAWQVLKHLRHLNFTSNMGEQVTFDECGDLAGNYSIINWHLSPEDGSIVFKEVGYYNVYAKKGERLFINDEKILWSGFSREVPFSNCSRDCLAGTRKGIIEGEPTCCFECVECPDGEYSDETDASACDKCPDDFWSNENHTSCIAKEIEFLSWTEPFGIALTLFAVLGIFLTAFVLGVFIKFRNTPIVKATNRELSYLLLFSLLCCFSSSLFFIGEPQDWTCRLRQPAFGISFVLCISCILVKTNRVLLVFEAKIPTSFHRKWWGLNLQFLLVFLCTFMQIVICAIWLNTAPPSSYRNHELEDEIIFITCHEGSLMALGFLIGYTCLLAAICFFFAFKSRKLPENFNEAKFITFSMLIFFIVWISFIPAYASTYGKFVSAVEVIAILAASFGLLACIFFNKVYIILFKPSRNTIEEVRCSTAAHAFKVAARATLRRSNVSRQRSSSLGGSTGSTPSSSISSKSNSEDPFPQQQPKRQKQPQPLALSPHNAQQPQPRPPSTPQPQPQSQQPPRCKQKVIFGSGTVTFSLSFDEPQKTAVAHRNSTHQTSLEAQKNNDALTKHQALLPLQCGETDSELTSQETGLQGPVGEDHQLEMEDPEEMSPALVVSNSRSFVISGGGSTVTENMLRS
Method: For example,. bovine parathyroid cells loaded with fura-2 are initially suspended in buffer containing 0.5 mM CaCl2. A test substance is added to the cuvette in a small volume (5-15 μl) and changes in the fluorescence signal are measured. Cumulative increases in the concentration of the test substance are made in the cuvette until some predetermined concentration is achieved or no further changes in fluorescence are noted.
Human parathyroid glands, were obtained from patients undergoing surgical removal of parathyroid tissue for primary or uremic hyperparathyroidism (uremic HPT), and were treated similarly to bovine tissue.
The cells were then pelleted, resuspended in the same buffer, but lacking the ester, and incubated a further 15 minutes at 37° C. The cells were subsequently washed twice with PCB containing 0.5 mM CaCl2 and 0.5% BSA and maintained at room temperature (about 20° C.). Immediately before use, the cells were diluted five-fold with prewarmed 0.5 mM CaCl2 -PCB to obtain a final BSA concentration of 0.1%. The concentration of cells in the cuvette used for fluorescence recording was 1-2×10^6 /ml.
The fluorescence of indicator-loaded cells was measured at 37° C. in a spectrofluorimeter (Biomedical Instrumentation Group, University of Pennsylvania, Philadelphia, Pa.) equipped with a thermostated cuvette holder and magnetic stirrer using excitation and emission wavelengths of 340 and 510 nm, respectively. […] Leakage of dye is dependent on temperature and most occurs within the first 2 minutes after warming the cells in the cuvette. Dye leakage increases only very slowly thereafter. To correct the calibration for dye leakage, cells were placed in the cuvette and stirred at 37° C. for 2-3 minutes. The cell suspension was then removed, the cells pelleted, and the supernatant returned to a clean cuvette. […] This estimate was subtracted from the apparent Fmin.

[3] = tested on: osteoclast calcium receptor; assay: [Ca2+]i in indo-1-loaded rat osteoclasts; format: cell-based
[4] = molecular target: T2, parathyroid cell calcium receptor; assay: Cl- current in Xenopus oocytes injected with bovine parathyroid cell mRNA; format: cell-based; parameters: Whole pieces of gland were used to prepare mRNA that directs the expression of the calcium receptor in Xenopus oocytes; expressed in transfected cells; host or cells: Xenopus laevis oocytes injected with parathyroid poly(A)+ mRNA; conditions: oocytes expressing parathyroid calcium receptor, fendiline 100 μM
Method: as §1

[5] = molecular target: T2, parathyroid cell calcium receptor; assay: block of extracellular Ca2+-induced increases in [Ca2+]i in bovine parathyroid cells; format: cell-based
bovine parathyroid cells = assay: PTH secretion from bovine parathyroid cells; format: cell-based
Method: PTH secretion was measured by first suspending cells in PCB containing 0.5 mM CaCl2 and 0.1% BSA.

cyclic AMP = format: cell-based, bovine
Method: Cells were incubated as above for PTH secretion studies and at the end of the incubation, a 0.15-ml sample was taken and transferred to 0.85 ml of hot (70° C.) water and heated at this temperature for 5-10 minutes. The tubes were subsequently frozen and thawed several times and the cellular debris sedimented by centrifugation. Portions of the supernatant were acetylated and cyclic AMP concentrations determined by radioimmunoassay.
Each value is the mean±SEM of three experiments.

inositol phosphates = assay: inositol phosphate formation in parathyroid cells; format: cell-based, bovine; conditions: 30 seconds
Method: After 30 seconds, the reaction was terminated by the addition of CHCl3 :MeOH:HCl and IP1 (circles) and IP3 (triangles) separated by anion exchange chromatography. Each point is the mean of 2 experiments, each performed in triplicate.
This section describes procedures measuring inositol phosphate formation. Membrane phospholipids were labeled by incubating parathyroid cells with 4 μCi/ml ^3 H-myo-inositol for 20-24 hours. Cells were then washed and resuspended in PCB containing 0.5 mM CaCl2 and 0.1% BSA. Incubations were performed in microfuge tubes in the absence or presence of various concentrations of organic polycation for different times. Reactions were terminated by the addition of 1 ml chloroform-methanol-12 N HCl (200:100:1; v/v/v). Aqueous phytic acid hydrolysate (200 μl; 25 μg phosphate/tube). The tubes were centrifuged and 600 μl of the aqueous phase was diluted into 10 ml water.
Inositol phosphates were separated by ion-exchange chromatography using AG1-X8 in either the chloride- or formate-form. When only IP3 levels were to be determined, the chloride-form was used, whereas the formate form was used to resolve the major inositol phosphates (IP3, IP2, and IP1). […] The last eluate was diluted and counted. […] The eluted samples from the formate columns were rotary evaporated, the residues brought up in cocktail, and counted.

Question: Which “response of calcium receptor-transfected cells” value [1] does the source give for `C[N+](C)(C)CCOC(N)=O` [carbachol] here?
Answer: The value was “did not respond”.

Question: For “substance K: ligand of substance K receptor (HKTDSFVGLM; ends and bridges not checked; UniProt P20366 98-107, looked up)”, which “response of calcium receptor-transfected cells” value [1] is on record?
Answer: Its value is “did not respond”.

Question: How did the “mobilization of intracellular Ca2+ in oocytes” value (calcium receptor) turn out when `C1CNCCNCCNCCNCCNCCN1` [Hexacyclen, 1,4,7,10,13,16-hexaaza-cyclooctadecane] was run?
Answer: Its value is “caused the mobilization of intracellular Ca^2+”.

Question: What about the “potency increase relative to pentaethylenehexamine” value ([2]; ring structure vs straight chain) of the same molecule?
Answer: The value was 25 fold.

Question: What does the source list for `NCCCCNCCCN` [Spermidine]?
Answer: effect on [Ca2+]i [2]: mobilize intracellular Ca^2+; effect on [Ca2+]i in osteoclasts [3]: none of these caused any large increase in [Ca^2+ ]i

Question: For `CC(NCCC(c1ccccc1)c1ccccc1)c1ccccc1` (racemic) [Fendiline], which “effect on Cl- current / intracellular Ca2+” value [4] is on record?
Answer: The value was “evokes the mobilization of intracellular Ca^2+”.

Question: And the “effect on Cl- current / intracellular Ca2+” value ([4]; listed as fendiline)?
Answer: Its value is “evokes oscillatory increases in Cl^-; also recorded: elicits oscillatory increases in Cl^-”.

Question: With `NCCCN(CCCN)CCCNCCCCNCCCN(CCCN)CCCN` [NPS 382, N^1,N^1,N^5,N^14,N^14-tetrakis-(3-aminopropyl)spermine] as the molecule, how does the “mobilization of intracellular Ca2+ in oocytes” value (calcium receptor) read?
Answer: The value was “also effective”.

Question: And the “effect on [Ca2+]i” value [2]?
Answer: The value was “mobilize intracellular Ca^2+”.

Question: What about the “relative potency, in words” value ([2]; parathyroid cells) of the same molecule?
Answer: Its value is “about twice as potent as NPS 381”.

Question: Which results are given for `NCCCCCCCCCCCCNC(=O)Cc1ccc(O)cc1O` [NPS 021]?
Answer: effect on extracellular Ca2+-elicited increase in [Ca2+]i ([5]; 200 μM): inhibited the increase in [Ca^2+ ]i; effect on basal [Ca2+]i ([5]; 0.5 mM CaCl2): caused no change in [Ca^2+ ]i; also recorded: does not by itself cause any change in [Ca^2+ ]i; effect on extracellular Ca2+-evoked increase in [Ca2+]i ([5]; around 500 μM): abolished

Question: Which results are given for protamine?
Answer: effect on PTH secretion (bovine parathyroid cells; bovine parathyroid cells): inhibit PTH secretion; also recorded: inhibited PTH secretion to the same extent as extracellular Ca^2+; effect on [Ca2+]i [2]: evoked rapid and transient increases in [Ca^2+ ]i; effect on intracellular Ca2+ ([2]; neomycin B 30 μM, protamine 1 μg/ml): mobilization of intracellular Ca^2+; effect on isoproterenol-induced increases in cyclic AMP (cyclic AMP): depressed isoproterenol-induced increases in cyclic AMP; effect on inositol phosphate formation (inositol phosphates): increases the formation of inositol phosphates; also recorded: rapid (within 30 seconds) increase in the formation of IP3

Question: Which “effect on [Ca2+]i in osteoclasts” value [3] does the source give for `CC(Cc1ccccc1)NCCC(c1ccccc1)c1ccccc1` (centres unmarked) [Prenylamine] here?
Answer: Its value is “mobilization of [Ca^2+ ]i”.

Question: Which results are given for `CCCCCCCCCCCCCC(=O)O[C@@H]1[C@@H](C)[C@@]2(O)[C@@H](C=C(CO)C[C@]3(O)C(=O)C(C)=C[C@@H]23)[C@@H]2C(C)(C)[C@]12OC(C)=O` [PMA, phorbol myristate acetate]?
Answer: effect on concentration-response curves for inhibition of PTH secretion (bovine parathyroid cells; 100 nM, 30 minutes): shifts to the right the concentration-response curves; effect on concentration-response curves for increases in [Ca2+]i ([2]; 100 nM): shift to the right in the concentration-response curve; also recorded: shifts to the right the concentration-response curves; effect on inositol phosphate formation (inositol phosphates): depresses the formation of IP1
